Reference: patent US20150218534A1, “MODIFIED DNA POLYMERASE” (TOYOBO CO., LTD., priority 2012, published 2015)

B1: KOD P36K: modified KOD DNA polymerase with P36K (protein, listed as Thermococcus kodakaraensis)
chain: MILDTDYITEDGKPVIRIFKKENGEFKIEYDRTFEKYFYALLKDDSAIEEVKKITAERHGTVVTVKRVEKVQKKFLGRPVEVWKLYFTHPQDVPAIRDKIREHPAVIDIYEYDIPFAKRYLIDKGLVPMEGDEELKMLAFDIETLYHEGEEFAEGPILMISYADEEGARVITWKNVDLPYVDVVSTEREMIKRFLRVVKEKDPDVLITYNGDNFDFAYLKKRCEKLGINFALGRDGSEPKIQRMGDRFAVEVKGRIHFDLYPVIRRTINLPTYTLEAVYEAVFGQPKEKVYAEEITTAWETGENLERVARYSMEDAKVTYELGKEFLPMEAQLSRLIGQSLWDVSRSSTGNLVEWFLLRKAYERNELAPNKPDEKELARRRQSYEGGYVKEPERGLWENIVYLDFRSLYPSIIITHNVSPDTLNREGCKEYDVAPQVGHRFCKDFPGFIPSLLGDLLEERQKIKKKMKATIDPIERKLLDYRQRAIKILANSYYGYYGYARARWYCKECAESVTAWGREYITMTIKEIEEKYGFKVIYSDTDGFFATIPGADAETVKKKAMEFLKYINAKLPGALELEYEGFYKRGFFVTKKKYAVIDEEGKITTRGLEIVRRDWSEIAKETQARVLEALLKDGDVEKAVRIVKEVTEKLSKYEVPPEKLVIHEQITRDLKDYKATGPHVAVAKRLAARGVKIRPGTVISYIVLKGSGRIGDRAIPFDEFDPTKHKYDAEYYIENQVLPAVERILRAFGYRKEDLRYQKTRQVGLSAWLKPKGT
B2: Pfu Y7A/P36H: modified Pfu DNA polymerase with Y7A and P36H (protein, UniProt P61875 1-775, looked up, variant Y7A P36H)
DNA polymerase: MILDVDAITEEGKPVIRLFKKENGKFKIEHDRTFRHYIYALLRDDSKIEEVKKITGERHGKIVRIVDVEKVEKKFLGKPITVWKLYLEHPQDVPTIREKVREHPAVVDIFEYDIPFAKRYLIDKGLIPMEGEEELKILAFDIETLYHEGEEFGKGPIIMISYADENEAKVITWKNIDLPYVEVVSSEREMIKRFLRIIREKDPDIIVTYNGDSFDFPYLAKRAEKLGIKLTIGRDGSEPKMQRIGDMTAVEVKGRIHFDLYHVITRTINLPTYTLEAVYEAIFGKPKEKVYADEIAKAWESGENLERVAKYSMEDAKATYELGKEFLPMEIQLSRLVGQPLWDVSRSSTGNLVEWFLLRKAYERNEVAPNKPSEEEYQRRLRESYTGGFVKEPEKGLWENIVYLDFRALYPSIIITHNVSPDTLNLEGCKNYDIAPQVGHKFCKDIPGFIPSLLGHLLEERQKIKTKMKETQDPIEKILLDYRQKAIKLLANSFYGYYGYAKARWYCKECAESVTAWGRKYIELVWKELEEKFGFKVLYIDTDGLYATIPGGESEEIKKKALEFVKYINSKLPGLLELEYEGFYKRGFFVTKKRYAVIDEEGKVITRGLEIVRRDWSEIAKETQARVLETILKHGDVEEAVRIVKEVIQKLANYEIPPEKLAIYEQITRPLHEYKAIGPHVAVAKKLAAKGVKIKPGMVIGYIVLRGDGPISNRAILAEEYDPKKHKYDAEYYIENQVLPAVLRILEGFGYRKEDLRYQKTRQVGLTSWLNIKKS

Legend:
Assay type in all cases: biochemical
[1] = test system: human genomic DNA (about 1.3 kb) with dUTP added; assay: Evaluation of uracil (dUTP) sensitivity by PCR with dUTP added to the reaction; conditions: for Evaluation of dUTP resisitance on a 11-point scale: closer to 0 = stronger sensitivity to dUTP, closer to 10 = lower sensitivity, summary of Examples 1 to 3; for dUTP resistance: dUTP added to 0.5, 5, 50, 100, 200 μM, about 1.3 kb, 30 cycles, 1 U enzyme; for sensitivity to dUTP / amount of amplification, comparison with single mutants or wild type: dUTP added to PCR (FIGS. 3 and 4)
Description: The uracil sensitivity of the modified DNA polymerase of the present invention can be evaluated by PCR. For example, a dUTP solution is added at a final concentration of 0.5 μM to 200 μM to a common PCR reaction solution containing DNA as a template, a buffer, magnesium, dNTPs, primers, and a DNA polymerase to be evaluated, and thermal cycling is performed. After the reaction, the presence or absence of PCR products is confirmed by ethidium bromide-stained agarose electrophoresis, and the uracil sensitivity can be evaluated by the concentration of accepted dUTP. With a DNA polymerase having high uracil sensitivity, the extension reaction is inhibited by the addition of a small amount of dUTP, and PCR products cannot be confirmed. With a DNA polymerase having low uracil sensitivity, gene amplification by PCR can be confirmed without problem, even if a high concentration of dUTP is added. The modified DNA polymerase with low uracil sensitivity in the present invention refers to a DNA polymerase such that when optimum thermal cycling is performed using any primers and DNA as a template in a reaction buffer optimum for the enzyme, even if a high concentration of dUTP is added, an extension reaction is not inhibited and PCR products can be confirmed, compared to wild-type DNA polymerase, which has no mutation.
More specifically, 10× PCR buffer included in KOD-Plus-Ver. 2 (produced by Toyobo Co. Ltd.) or 10× PCR buffer included in Pfu DNA Polymerase (produced by Agilent) is used; dUTP (produced by Roche) is added to 50 μl of individual reaction solutions containing 1× PCR buffer, 1.5 mM MgSO4, dNTPs (dATP, dTTP, dCTP, and dGTP) in an amount of 0.2 mM, primers represented by SEQ ID NOs: 25 and 26 in an amount of 15 pmol for amplifying about 1.3 kb, 10 ng of human genomic DNA (produced by Roche), and 1 U of each respective enzyme, to final concentrations of 0.5, 5, 50, 100, and 200 μM. PCR is performed using a GeneAmp PCR system 9700 (Applied Biosystems) on the following schedule; preliminary reaction at 94° C. for 30 seconds, followed by 30 cycles, each cycle consisting of 98° C. for 10 seconds, 65° C. for 30 seconds, and 68° C. for 1 minute and 30 seconds. After the completion of each individual reaction, 5 μl of each of the resulting reaction solutions is subjected to agarose electrophoresis, followed by ethidium bromide staining. The uracil sensitivity can be evaluated by confirming amplified DNA fragments of about 1.3 kb under ultraviolet irradiation.
PCR was performed by the following method to evaluate uracil sensitivity. For PCR, components included in KOD-Plus-Ver. 2 (produced by Toyobo Co. Ltd.) were used. dUTP (produced by Roche) was added to 50 μl of individual reaction solutions containing 1× PCR buffer, 1.5 mM MgSO4, dNTPs (dATP, dTTP, dCTP, dGTP) in an amount of 0.2 mM, primers represented by SEQ ID NOs: 25 and 26 in an amount of 15 pmol for amplifying about 1.3 kb, 10 ng of human genomic DNA (produced by Roche), and 1 U of each respective enzyme, to final concentrations of 0.5, 5, 50, 100, and 200 μM. PCR was performed using a GeneAmp PCR system 9700 (produced by Applied Biosystems) on the following schedule: preliminary reaction at 94° C. for 30 seconds, followed by 30 cycles, each cycle consisting of 98° C. for 10 seconds, 65° C. for 30 seconds, and 68° C. for 1 minute and 30 seconds. After the completion of each individual reaction, 5 μl of each of the resulting reaction solutions was subjected to agarose electrophoresis, followed by ethidium bromide staining. Under ultraviolet irradiation, amplified DNA fragments of about 1.3 kb were confirmed. FIGS. 3, 4, 7, and 8 show the results.

482 bp of human β-globin = assay: PCR amplification of 482 bp of human β-globin with dUTP in place of dTTP; set-up: key to Results of PCR in the presence of dUTP 481 bp: A: Amplified; B: Amplified (faint band); C: Not amplified; conditions: for Results of PCR in the presence of dUTP 481 bp: dTTP replaced by dUTP, 35 cycles
Description: 482 bp of human β-globin was amplified to compare the amplification difference between the case of using dTTP and the case of using dUTP in PCR, and the sensitivity to dUTP was examined. For amplification, each enzyme was used after being mixed with 1 μg of a KOD antibody per U of the enzyme. For PCR, components included in KOD-Plus-Ver. 2 (produced by Toyobo Co. Ltd.) were used. General dNTPs (dATP, dTTP, dCTP, dGTP) in an amount of 0.2 mM were added to 50 μl of individual reaction solutions, and dNTPs (dATP, dUTP, dCTP, dGTP) in an amount of 0.2 mM in which dTTP was replaced by dUTP were added to 50 μl of individual reaction solutions. The reaction solutions contained 1× PCR buffer, 1.5 mM MgSO4, primers represented by SEQ ID NOs: 27 and 28 in an amount of 15 pmol for amplifying […], 10 ng of human genomic DNA (produced by Roche), and 1 U of each respective enzyme mixed with the antibody. PCR was performed using a GeneAmp PCR system 9700 (produced by Applied Biosystems) on the following schedule: preliminary reaction at 94° C. for 2 minutes, followed by 35 cycles, each cycle consisting of 98° C. for 10 seconds and 68° C. for 1 minute. After the completion of each individual reaction, each of the resulting reaction solutions was analyzed using to a DNA-1000 kit for MultiNA (produced by Shimadzu Corporation) to confirm amplified DNA fragments. FIGS. 5 and 6 show the results.

[2] = test system: 1.3 kbp, 2.8 kbp, and 3.6 kbp of human β-globin; assay: Amplification of long-chain DNA in PCR using dUTP; conditions: 1.3, 2.8, 3.6 kbp; 100% dUTP (FIGS. 9 and 10)
Description: Amplification of 1.3 kbp, 2.8 kbp, and 3.6 kbp of human β-globin in PCR using dUTP was compared. For amplification, each enzyme was used after being mixed with 1 μg of a KOD antibody per U of the enzyme. For PCR, components included in KOD-Plus-Ver. 2 (produced by Toyobo Co. Ltd.) were used. 50 μl of individual reaction solutions containing 1× PCR buffer, 1.5 mM MgSO4, dNTPs (dATP, dUTP, dCTP, dGTP) in an amount of 2 mM in which dTTP was replaced by dUTP, primers in an amount of 15 pmol (SEQ ID NOs: 25 and 26 for amplification of 1.3 kbp; SEQ ID NOs: 26 and 29 for amplification of 2.8 kbp; SEQ ID NOs: 30 and 31 for amplification of 3.6 kbp), 10 ng of human genomic DNA (produced by Roche), and 1 U of each respective enzyme mixed with the antibody were used. PCR was performed using a GeneAmp PCR system 9700 (Applied Biosystems) on the following schedule: preliminary reaction at 94° C. for 2 minutes, followed by 35 cycles, each cycle consisting of 98° C. for 10 seconds, 65° C. for 30 seconds, and 68° C. for about 1 minute per kbp (1 minute and 30 seconds for amplification of 1.3 kbp; 3 minutes for amplification of 2.8 kbp; 4 minutes for amplification of 3.6 kbp). As a control, amplification was also performed using Taq DNA polymerase. Taq DNA polymerase produced by Toyobo Co. Ltd. mixed with Anti-Taq High (produced by Toyobo Co. Ltd.) was used. 50 μl of a reaction solution containing 1× buffer included in Blend Taq, dNTPs (dATP, dUTP, dCTP, dGTP) in an amount of 2 mM in which dTTP was replaced by dUTP, primers in an amount of 10 pmol the same as the above), 10 ng of human genomic DNA (produced by Roche), and 2.5 U of the enzyme mixed with the antibody was used. PCR was performed using a GeneAmp PCR system 9700 (produced by Applied Biosystems) on the following schedule: preliminary reaction at 94° C. for 2 minutes, followed by 35 cycles, each cycle consisting of 94° C. for 30 seconds, 65° C. for 30 seconds, and 68° C. for about 1 minute per kbp (1 minute and 30 seconds for amplification of 1.3 kbp; 3 minutes for amplification of 2.8 kbp; 4 minutes for amplification of 3.6 kbp). After the completion of each individual reaction, 5 μl of each of the resulting reaction solutions was subjected to agarose electrophoresis, followed by ethidium bromide staining, and the amount of amplified DNA fragments was confirmed under ultraviolet irradiation. FIGS. 9 and 10 show the results.

Row | Molecule | Evaluation of dUTP resisitance on a 11-point scale [1] | dUTP resistance [1] [µM] | Results of PCR in the presence of dUTP 481 bp (482 bp of human β-globin) | sensitivity to dUTP / amount of amplification, comparison with single mutants or wild type [1] | PCR amplification of 482 bp with dUTP (482 bp of human β-globin; 100% dUTP instead of dTTP (FIGS. 5 to 8)) | PCR products on addition of dUTP ([1]; some amount of dUTP added) | amount of amplification of long-chain DNA with dUTP [2]
1 | KOD H147E/P36K: KOD H147E (exo(+)) mutant with P36K | 4 | 100 | A | – | – | – | –
2 | KOD N210D/P36K: KOD N210D (exo(−)) mutant with P36K | 8 | >200 | A | – | – | – | –
3 | KOD Y7A/P36K: modified KOD DNA polymerase with Y7A and P36K | – | – | – | more tolerant of the addition of high concentration of dUTP and provided a larger amount of amplification | allowed for PCR amplification | – | –
4 | B1 | 3 | 100 | A | – | – | PCR products were confirmed | –
5 | B2 | – | – | – | provided a larger amount of amplification | – | – | provided larger amounts of amplification
